The source made the active and inactive calls.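 The calls were made as follows: active = half-maximal concentration at most 10 µM from a sound curve fit, with response shifting 30% or more across doses; inactive = the rest.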
Molecular target: GTPase HRas (Homo sapiens) (UniProt P01112)
Assay: activated H-Ras mutant GTP-binding inhibitors, SAR follow-up, selectivity assay for Cdc42 probe extension project, biochemical, multiplex bead flow cytometry, round 1 (AID 588381)
Conditions: GST-H-Ras act beads, Bodipy-FL-GTP binding; for response, lower = inhibition: at 100 µM (top of the series)

Chain of GTPase HRas (Homo sapiens) (P01112 whole entry, looked up): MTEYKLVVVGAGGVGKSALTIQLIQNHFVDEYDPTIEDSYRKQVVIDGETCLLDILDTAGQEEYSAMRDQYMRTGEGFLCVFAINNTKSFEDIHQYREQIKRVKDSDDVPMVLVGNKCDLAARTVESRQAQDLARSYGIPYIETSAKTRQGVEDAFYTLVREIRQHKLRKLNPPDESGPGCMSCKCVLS

| SMILES | response, lower = inhibition | EC50 |
| --- | --- | --- |
| NS(=O)(=O)c1ccc(N2N=C(c3ccccc3)CC2c2ccccc2)cc1 (centres undefined) | inactive | – |
| O=C(C#Cc1ccccc1)c1cccc([N+](=O)[O-])c1 | inactive | – |
| COc1ccc(C2CC(c3ccccc3)=NN2c2ccc(S(N)(=O)=O)cc2)cc1 (centres undefined) | inactive | – |
| CC1(C)Cc2c(sc(NC(=S)NC(=O)c3ccccc3)c2C(=O)O)CO1 | – | 82 nM |
